Measurements as given in patent EP0006061A1, “Medicinal compound consisting of a derivative of cyclopentyl aldehyde” (INSTITUT DE RECHERCHES CHIMIQUES ET BIOLOGIQUES APPLIQUEES …, priority 1978, dated 1979).
≈ marks a conversion by molar mass, not a printed value.

Key:
[1] = system: iléon isolé de cobaye; assay: antispasmodic activity in vitro against histamine on isolated ileum; assay type: cell-based; conditions: isolated guinea pig ileum, read-out: DE - 50 (the source's name)
Procedure: (§1) Les essais pharmaceutiques qui ont été mis en oeuvre avec les produits des exemples 1 et 4, ont été résumés ci-après : • 1°/ essais avec l'exemple 1 • a/ activité bactériostatique L' α-(2-formyl-3-méthyl-cyclopentyl)-acétal- déhyde inhibe les bactéries Gram (+) et Gram (-). Les CMI (concentration minimale inhibitrice) sont les suivantes : 0,75 mg/ml sur Staphylococcus aureus Londres, 1,2 mg/ml sur Escherichia coli, et 1,5 mg/ml sur Proteus • b/ activité antispasmodique : Les DE-50 du produit de l'exemple 1 ont été déterminés • (i) in vitro sur iléon isolé de cobaye vis à vis de l'histamine : DE - 50 = 50 γ/ml; • (ii) in vivo sur l'animal vivant selon la méthode de KONZETT & ROESLLER : DE - 50 = 2,6 mg/kg par administration i.v. • c/ activité antianaphylactique : Des cobayes mâles sont sensibilisés par deux injections de 0,5 ml d'une solution d'albumine à 2 g/1, à deux jours d'intervalle. Quatre semaines aprës,le choc anaphylactique mortel est provoqué par injection i.v. de 0,2 ml d'une solution aqueuse d'ovalbumine à 2 g/1. Les produits à tester sont administrés 30 mn avant (administration i.p.) ou en même temps (administration i.v.) que l'injection provoquant ledit choc anaphylactique. […]

[2] = system: Escherichia coli; assay: bacteriostatic activity (MIC); assay type: cell-based; conditions: read-out: CMI (concentration minimale inhibitrice)
Procedure: (§2) Les essais pharmaceutiques qui ont été mis en oeuvre avec les produits des exemples 1 et 4, ont été résumés ci-après : • 1°/ essais avec l'exemple 1 • a/ activité bactériostatique L' α-(2-formyl-3-méthyl-cyclopentyl)-acétal- déhyde inhibe les bactéries Gram (+) et Gram (-). Les CMI (concentration minimale inhibitrice) sont les suivantes : 0,75 mg/ml sur Staphylococcus aureus Londres, 1,2 mg/ml sur Escherichia coli, et 1,5 mg/ml sur Proteus • b/ activité antispasmodique : Les DE-50 du produit de l'exemple 1 ont été déterminés • (i) in vitro sur iléon isolé de cobaye vis à vis de l'histamine : DE - 50 = 50 γ/ml; • (ii) in vivo sur l'animal vivant selon la méthode de KONZETT & ROESLLER : DE - 50 = 2,6 mg/kg par administration i.v. • c/ activité antianaphylactique : Des cobayes mâles sont sensibilisés par deux injections de 0,5 ml d'une solution d'albumine à 2 g/1, à deux jours d'intervalle. Quatre semaines aprës,le choc anaphylactique mortel est provoqué par injection i.v. de 0,2 ml d'une solution aqueuse d'ovalbumine à 2 g/1. Les produits à tester sont administrés 30 mn avant (administration i.p.) ou en même temps (administration i.v.) que l'injection provoquant ledit choc anaphylactique. Les résultats sont donnés dans le tableau I pour le produit de l'exemple 1 et la Prométhazine en tant que produit de référence : [formula] • 2°/ essais avec le produit de l'exemple 4 (constitué par un mélange de 87 % en poids d'isomère "cis-trans" et 13 % en poids d'isomère "trans-cis). • a/ activité bactériostatigue : Le produit de l'exemple 4 inhibe les bactéries Gram (+) et Gram (-). Ses CMI sont les suivantes : • 1,5 mg/m sur Staphylococcus aureus, Londres • 1 mg/ml sur Escherichia coli (souche 548) • 1,75 mg/ml sur Proteus vulgaris (souche 1557) • 2,5 mg/ml sur Klebsiella pneumoniae (souche 433), • 1 mg/ml sur Salmonella typhi murium (souche IP), • 1,5 mg/ml sur Staphylococcus aureus (souche 634), • 1,25 mg/ml sur Streptococcus (souche 1178) • 1,25 mg/ml sur Bacillus substilis, (les souches 548, 1557, 433, 634, et 1178 étant celles du catalogue de la collection du "Centre International de Distribution de Souches et d'Information sur les Types Microbiens" de . Lausanne, et la souche "IP" provenant de l'Institut Pasteur de Paris. • b/ activité bactéricide Le produit de l'exemple 4 détruit les bactéries Gram (+) et Gram (-). Ses CMB (concentration minimalebactéricide) déterminées sur milieu solide (quand moins de 0,01% de germes survivent) sont : • 1,75 mg/ml sur Staphylococcus aureus Londres • 1,5 mg/ml sur Escherichia coli (souche 548) • 2 mg/ml sur Proteus vulgaris (souche 1557) • 3 mg/ml sur Klebsiella pneumoniae (souche 433), • 1,25 mg/ml sur Salmonella typhi murium (souche I.P.) • 1,75 mg/ml sur Staphylococcus aureus (souche 634) • 2 mg/ml sur Streptococcus (souche 1178) • 2,5 mg/ml sur Bacillus substilis. • c/ activité bronchospatique Des cobayes mâles ou femelles [20 animaux (pesant 300-500 g) par dose et par produit à tester] sont exposés à un aérosol de l'exemple 4 (50 g/l en solution eau-éthanol) ou de Prométhazine (produit de référence) pendant 10 mn.

[3] = system: Staphylococcus aureus Londres; assay: bacteriostatic activity (MIC); assay type: cell-based; conditions: read-out: CMI (concentration minimale inhibitrice)
Procedure: as §2

[4] = system: Proteus; assay: bacteriostatic activity (MIC); assay type: cell-based; conditions: read-out: CMI (concentration minimale inhibitrice)
Procedure: as §2

[5] = system: l'animal vivant; assay: antispasmodic activity in vivo, method of KONZETT & ROESLLER; conditions: iv, i.v. administration, read-out: DE - 50 (the source's name)
Procedure: as §1

CC1CCC(CC=O)C1C=O (stereo not drawn) [Ex. 1, α-(2-formyl-3-méthyl-cyclopentyl)-acétaldéhyde]
EC50 [1]: 50 mg/L (≈ 0.324 mM)
MIC [2]: 1200 mg/L (≈ 7.78 mM)
MIC [3]: 750 mg/L (≈ 4.86 mM)
MIC [4]: 1500 mg/L (≈ 9.73 mM)
ED50 [5]: 2.6 mg/kg
